Laboratory results from patent publication US20250152547A1, “COMPOSITIONS FOR DELIVERY OF LADOSTIGIL” (priority 2019, published 2025).

Legend:
[1] = Concentration of ladostigil in brain (cortex) of rats after oral or rectal administration (LC-MS/MS); assay type: in vivo; settings: male, Wistar, rat, read-out: Concentration of ladostigil in brain (cortex), mean ± STD (coefficient of variation)
[2] = Concentration of ladostigil in plasma of human subjects after a single oral dose (LC/MS/MS); assay type: in vivo, humans; settings: read-out: Concentration of ladostigil in plasma, mean ± STD (coefficient of variation)
[3] = Concentration of ladostigil in plasma of rats after oral or rectal administration (LC-MS/MS); assay type: in vivo; settings: rat
Description: Methods: Male Wister rats weighing 250-270g were used for these experiments. […] In other rats, the same dose of ladostigil was administered via a cannula gently inserted into the rectum and pushed forward to reach the colon. […] The brain was removed, and the cortex carefully dissected and stored at-80° C. until further analysis. Blood was collected in heparinized Eppendorf tubes, centrifuged at 4° C., 20,800 g for 10 min and the plasma was stored at −80° C. until further analysis.
(§1) Samples were prepared for LC-MS analysis after precipitating the proteins in plasma and cortical extracts with methanol as described in Moradov et al. (2015). Briefly, rivastigmine 750 ng/ml (internal standard) was added to 50 μl of plasma or supernatant after brain homogenization and ladostigil was extracted with HPLC grade MeOH. 75 μl of double distilled water (DDW) was added to 150 μl of the supernatant to give a final ratio of DDW:MeOH 1:1. The samples were filtered through […] GHP membranes and injected into the LC-MS machine. LC-MS/MS analysis was also performed as described in Moradov et al. (2015).
(§2) Ladostigil and rivastigmine were detected by an AB Sciex (Framingham, MA, USA) Triple Quad™ 5500 mass spectrometer in positive ion mode by electrospray ionization (ESI) and a multiple reaction monitoring (MRM) mode of acquisition. Data acquisition and analysis were performed on a Dell Optiplex 960 computer with Analyst 1.6.2 software distributed by AB Sciex. Quantitative calibration (0-100 ng/ml) was performed before every batch of samples. The calibration curve (y=a+bx) was obtained by linear least-squares regression of the measured peak area (y) versus the concentration added to the biological matrix (x). The limit of quantification (LOQ) of ladostigil in plasma and cortex was 50 pg/ml.

[4] = Concentration of ladostigil in brain (cortex) of rats after oral or rectal administration (LC-MS/MS); assay type: in vivo; settings: male, Wistar, rat, read-out: Concentration of ladostigil in brain (cortex), mean ± STD (coefficient of variation); remark: listed apart in the source
Description: Methods: Male Wister rats weighing 250-270g were used for these experiments. Ladostigil was administered by gavage at a dose of 5 mg/kg (volume 0.25-0.27ml). In other rats, the same dose of ladostigil was administered via a cannula gently inserted into the rectum and pushed forward to reach the colon. The rats were anesthetized with isofluorane and sacrificed by decapitation at 0, 15, 30, 60 or 120 min after ladostigil administration. The brain was removed, and the cortex carefully dissected and stored at-80° C. until further analysis. Blood was collected in heparinized Eppendorf tubes, centrifuged at 4° C., 20,800 g for 10 min and the plasma was stored at −80° C. until further analysis.
as §1, §2

[5] = Blood levels of ladostigil after oral administration, detection time and inter subject variability; assay type: in vivo, humans and rodent species
Description: Ladostigil is well absorbed from the gastro intestinal tract and can be detected in the blood within 15 minutes after oral administration in humans and rodent species. However, the inter subject variability in these blood levels at peak times after administration is very high with coefficients of variation of more than 100% irrespective of the dose administered. (Table 1). This is undesirable and could exacerbate any variability in the response to treatment by ladostigil of potential patients. The wide inter individual variation in blood levels may explain why the therapeutic effect of the drug in the clinical trial was not more pronounced.

[6] = oral administration (gavage) 5 mg/kg
[7] = other: rectal administration, rectal administration 5 mg/kg
[8] = normal healthy subjects aged 18-40, single oral dose 50 mg
[9] = normal healthy subjects aged 18-40, single oral dose 100 mg

For `C#CCN[C@@H]1CCc2ccc(OC(=O)N(C)CC)cc21` [ladostigil, 6-(N-ethyl, N-methyl, carbamyloxy)-N propargyl-1(R)-aminoindan, tartarate], the concentration at 180 min [1, 6] was 2.9 ng/g, the concentration at 180 min [1, 7] was 2.8 ng/g and the concentration at 15 min [2, 8] was 3.74 ng/mL. It also gave a concentration at 30 min [2, 8] of 18 ng/mL, a concentration at 60 min [2, 8] of 8.29 ng/mL and a concentration at 120 min [2, 8] of 2.88 ng/mL. The concentration at 15 min [2, 9] was 9.3 ng/mL, the concentration at 30 min [2, 9] was 34.8 ng/mL and the concentration at 60 min [2, 9] was 97.6 ng/mL. The concentration at 120 min [2, 9] was 44.4 ng/mL, the concentration at 180 min ([2]; normal healthy subjects aged 18-40, single oral dose 100 mg, 180 min) was 15.3 ng/mL and the concentration at 15 min ([3]; male, Wistar, other: rectal administration, rats, rectal administration 5 mg/kg, 15 min, read-out: Concentration of ladostigil in plasma, mean ± STD (coefficient of variation)) was 60.6 ng/mL. For the same compound, the concentration at 30 min ([3]; male, Wistar, other: rectal administration, rats, rectal administration 5 mg/kg, 30 min, read-out: Concentration of ladostigil in plasma, mean ± STD (coefficient of variation)) was 47.2 ng/mL, the concentration at 60 min ([3]; male, Wistar, other: rectal administration, rats, rectal administration 5 mg/kg, 60 min, * significantly higher than after oral treatment p < 0.05, read-out: Concentration of ladostigil in plasma, mean ± STD (coefficient of variation)) was 33.7 ng/mL and the concentration at 120 min ([3]; male, Wistar, other: rectal administration, rats, rectal administration 5 mg/kg, 120 min, * significantly higher than after oral treatment p < 0.05, read-out: Concentration of ladostigil in plasma, mean ± STD (coefficient of variation)) was 14.1 ng/mL. For the same compound, the concentration at 180 min ([3]; male, Wistar, other: rectal administration, rats, rectal administration 5 mg/kg, 180 min, * significantly higher than after oral treatment p < 0.05, read-out: Concentration of ladostigil in plasma, mean ± STD (coefficient of variation)) was 13.9 ng/mL, the concentration at 15 min ([3]; male, Wistar rats, single oral dose 5 mg/kg, 15 min (Table 1), read-out: Concentration of ladostigil in plasma, mean ± STD (coefficient of variation)) was 53.7 ng/mL and the concentration at 30 min ([3]; male, Wistar rats, single oral dose 5 mg/kg, 30 min (Table 1), read-out: Concentration of ladostigil in plasma, mean ± STD (coefficient of variation)) was 36.4 ng/mL. It also gave a concentration at 60 min ([3]; male, Wistar rats, single oral dose 5 mg/kg, 60 min (Table 1), read-out: Concentration of ladostigil in plasma, mean ± STD (coefficient of variation)) of 8.3 ng/mL, a concentration at 120 min ([3]; male, Wistar rats, single oral dose 5 mg/kg, 120 min (Table 1), read-out: Concentration of ladostigil in plasma, mean ± STD (coefficient of variation)) of 4.9 ng/mL and a concentration at 180 min ([3]; male, Wistar rats, single oral dose 5 mg/kg, 180 min (Table 1), read-out: Concentration of ladostigil in plasma, mean ± STD (coefficient of variation)) of 2.4 ng/mL. It also gave a concentration at 15 min ([3]; Wistar rats, single oral dose 1 mg/kg, 15 min, read-out: Concentration of ladostigil in plasma, mean ± STD (coefficient of variation)) of 18.7 ng/mL, a concentration at 30 min ([3]; Wistar rats, single oral dose 1 mg/kg, 30 min, read-out: Concentration of ladostigil in plasma, mean ± STD (coefficient of variation)) of 12.3 ng/mL and a concentration at 60 min ([3]; Wistar rats, single oral dose 1 mg/kg, 60 min, read-out: Concentration of ladostigil in plasma, mean ± STD (coefficient of variation)) of 6.7 ng/mL. For the same compound, the concentration at 120 min ([3]; Wistar rats, single oral dose 1 mg/kg, 120 min, read-out: Concentration of ladostigil in plasma, mean ± STD (coefficient of variation)) was 1.6 ng/mL, the concentration at 15 min [4, 6] was 17.9 ng/g and the concentration at 30 min [4, 6] was 9.3 ng/g. The concentration at 60 min [4, 6] was 6.7 ng/g, the concentration at 120 min [4, 6] was 4.9 ng/g and the concentration at 15 min [4, 7] was 14.3 ng/g. It also gave a concentration at 30 min [4, 7] of 11.9 ng/g, a concentration at 60 min [4, 7] of 9.3 ng/g and a concentration at 120 min [4, 7] of 7.4 ng/g. The “Coefficient of variation of blood levels (inter subject variability)” value ([5]; at peak times after oral administration, irrespective of the dose) was “more than 100%” and the “Time after which ladostigil can be detected in the blood” value ([5]; oral administration, humans and rodent species) was at most 15 min.
